Data reported in ChEMBL document CHEMBL1139756, “Synthesis and structure-activity relationship of novel indene N-oxide derivatives as potent peroxisome proliferator activated receptor gamma (PPARgamma) agonists” (Bioorg Med Chem Lett, 2007).

Target: T1, Peroxisome proliferator-activated receptor gamma (Homo sapiens, UniProt P37231)
T1 sequence (P37231 whole entry): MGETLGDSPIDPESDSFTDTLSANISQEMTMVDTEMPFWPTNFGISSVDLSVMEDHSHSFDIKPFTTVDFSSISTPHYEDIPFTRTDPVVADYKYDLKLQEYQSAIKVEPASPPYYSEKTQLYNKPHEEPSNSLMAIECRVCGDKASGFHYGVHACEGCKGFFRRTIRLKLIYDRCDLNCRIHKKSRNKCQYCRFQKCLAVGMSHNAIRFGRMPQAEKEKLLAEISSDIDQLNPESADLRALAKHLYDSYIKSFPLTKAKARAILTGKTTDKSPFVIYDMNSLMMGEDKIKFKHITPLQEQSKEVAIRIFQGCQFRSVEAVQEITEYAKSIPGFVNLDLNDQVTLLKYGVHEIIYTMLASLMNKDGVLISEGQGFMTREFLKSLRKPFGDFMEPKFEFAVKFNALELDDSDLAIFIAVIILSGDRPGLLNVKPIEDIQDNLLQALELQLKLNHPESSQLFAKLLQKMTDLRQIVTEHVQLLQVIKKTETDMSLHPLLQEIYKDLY
Description: Agonist activity at human PPARgamma expressed in NIH3T3 cells by GAL4 transactivation assay

CCOC(=O)C1=C(c2ncc[nH]2)c2ccc(OCCCc3ccccc3)cc2/C1=[N+](/C)[O-]
EC50: > 1000 nM

CCOC(=O)C1=C(c2ccc(C)cc2)c2ccc(OCCCc3ccccc3)cc2/C1=[N+](/C)[O-]
EC50: 660 nM

CCOC(=O)C1=C(c2ccccc2)c2ccc(OC)cc2/C1=[N+](\[O-])Cc1ccccc1
EC50: > 10000 nM

CCOC(=O)C1=C(c2cccc(C)c2)c2ccc(OCCCc3ccccc3)cc2/C1=[N+](/C)[O-]
EC50: 300 nM

CCOC(=O)C1=C(c2ccccc2)c2ccc(OCCC34CC5CC(CC(C5)C3)C4)cc2/C1=[N+](/C)[O-]
EC50: 840 nM

CCOC(=O)C1=C(c2ccc(Cl)cc2)c2ccc(OCCCc3ccccc3)cc2/C1=[N+](/C)[O-]
EC50: 70 nM

CCOC(=O)C1=C(CC)c2ccc(OCCCc3ccccc3)cc2/C1=[N+](/C)[O-]
EC50: 80 nM

C/[N+]([O-])=C1\C=C(c2ccccc2)c2ccc(OCCN3CCOCC3)cc21
EC50: 150 nM

COC(=O)C1=C(c2ccccc2)c2ccc(OCCN3CCOCC3)cc2/C1=[N+](/C)[O-]
EC50: 140 nM

CCOC(=O)C1=C(c2ccccc2)c2ccc(OC)cc2/C1=N\O
EC50: > 10000 nM

CCOC(=O)C1=C(c2ccccc2)c2ccc(OC)cc2/C1=[N+](\[O-])CC
EC50: > 10000 nM

C/[N+]([O-])=C1\C(C(=O)NC2CC2)=C(c2ccccc2)c2ccc(OCCN3CCOCC3)cc21
EC50: 20 nM

CCOC(=O)C1=C(c2ccsc2)c2ccc(OCCCc3ccccc3)cc2/C1=[N+](/C)[O-]
EC50: 190 nM

CCOC(=O)C1=C(c2ccccc2)c2ccc(OC)cc2/C1=N\OC
EC50: 1500 nM

CCOC(=O)C1=C(c2ccc3c(c2)OCO3)c2ccc(OCCCc3ccccc3)cc2/C1=[N+](/C)[O-]
EC50: 250 nM

CCOC(=O)C1=C(c2ccccc2)c2ccc(OCc3ccccn3)cc2/C1=[N+](/C)[O-]
EC50: 90 nM
